“And” between values parts separate entries of the source, which are not always exact repeats. Equal values may be shown once.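 Results reflect a 48-hour exposure of cells in 96-well plates to compound at five concentrations. GI50 is the concentration that inhibits growth by half. TGI: total growth inhibition.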
Experiments:
Test in all cases: inhibition of tumour cell growth, NCI panel, 48 h
MDA-N = tested on: MDA-N
SW-620 colon = tested on: SW-620 colon
MDA-MB-435 = tested on: MDA-MB-435
OVCAR-4 ovarian = tested on: OVCAR-4 ovarian
SF-539 CNS = tested on: SF-539 CNS
TK-10 renal = tested on: TK-10 renal
K-562 leukemia = tested on: K-562 leukemia
UO-31 renal = tested on: UO-31 renal
OVCAR-3 ovarian = tested on: OVCAR-3 ovarian
NCI-H522 lung = tested on: NCI-H522 lung
OVCAR-8 ovarian = tested on: OVCAR-8 ovarian
T-47D breast = tested on: T-47D breast
M14 melanoma = tested on: M14 melanoma
786-0 renal = tested on: 786-0 renal
NCI-H226 lung = tested on: NCI-H226 lung
U251 CNS = tested on: U251 CNS
SR leukemia = tested on: SR leukemia

Structure (SMILES)	TGI (MDA-N)	TGI (SW-620 colon)	TGI (MDA-MB-435)	TGI (OVCAR-4 ovarian)	TGI (SF-539 CNS)	TGI (TK-10 renal)	TGI (K-562 leukemia)	TGI (UO-31 renal)	TGI (OVCAR-3 ovarian)	TGI (NCI-H522 lung)	TGI (OVCAR-8 ovarian)	TGI (T-47D breast)	TGI (M14 melanoma)	TGI (786-0 renal)	TGI (NCI-H226 lung)	TGI (U251 CNS)	TGI (SR leukemia)	GI50 (SW-620 colon)	GI50 (UO-31 renal)	GI50 (T-47D breast)
O=[N+]([O-])/C(C(Cl)=C(Cl)Cl)=C(/Cl)SCc1ccccc1	4.23 µM	10.2 µM	5.12 µM	18.6 µM	32.3 µM	18.9 µM	3.36 µM	4.83 µM	12.1 µM	7.8 µM	3.04 µM	39.2 µM	3.58 µM	3.09 µM	56.7 µM	25.1 µM				
Cc1ccc2nc(N/N=C/c3sccc3C)cc(C)c2c1	> 100 µM	> 100 µM	> 100 µM	> 100 µM		> 100 µM	> 100 µM	> 100 µM	> 100 µM		> 100 µM	> 100 µM	> 100 µM	> 100 µM	> 100 µM	> 100 µM				
O=C1Cc2c([nH]c3ccc(Br)cc23)-c2cc(O)c(O)cc2N1	> 100 µM	> 100 µM	> 100 µM	> 100 µM		> 100 µM	> 100 µM	> 100 µM	> 100 µM	> 100 µM	> 100 µM	> 100 µM	> 100 µM	> 100 µM	> 100 µM	> 100 µM				
CC1(C)CC[C@]2(C)CC[C@]3(C)C(=CC[C@@H]4[C@@]5(C)CCC(=O)C(C)(C)[C@@H]5[C@H](O)C[C@]43C)[C@@H]2C1	29.7 µM	42.2 µM	39.7 µM	34.7 µM	32.1 µM	30.1 µM			31 µM	31.9 µM	34.3 µM	37.7 µM	40.7 µM	30.9 µM		30.5 µM				
OCCN(CCO)c1ncnc2nc[nH]c12	> 100 µM	> 100 µM	> 100 µM	> 100 µM		> 100 µM	> 100 µM	> 100 µM	> 100 µM	> 100 µM	> 100 µM	> 100 µM	> 100 µM	> 100 µM	> 100 µM	> 100 µM				
CN(C)C(=NCc1ccccc1)NC#N		> 100 µM		> 100 µM	> 100 µM	> 100 µM		> 100 µM	> 100 µM	> 100 µM	> 100 µM		> 100 µM	> 100 µM		> 100 µM				
O=[N+]([O-])c1cccc2nc3ccccc3c(NCCCNc3c4ccccc4nc4cccc([N+](=O)[O-])c34)c12		> 100 µM	0.141 µM	0.302 µM	0.149 µM	< 0.01 µM		0.143 µM	0.0906 µM	0.121 µM	0.131 µM	0.407 µM	0.0744 µM	< 0.01 µM	11.7 µM	0.181 µM				
O=C(c1cccs1)N(C(=S)OCCOc1ccccc1)c1ccccc1	33.4 µM	80 µM	33.7 µM	86.7 µM	58 µM	> 100 µM	> 100 µM		41.6 µM	45.1 µM	87.8 µM	> 100 µM	37.1 µM	73.7 µM		48.8 µM				
C/C(=C\CBr)CCC(Br)C(C)(C)Cl (centres undefined)		> 100 µM		> 100 µM	> 100 µM	> 100 µM	> 100 µM	> 100 µM		> 100 µM	> 100 µM		> 100 µM	> 100 µM	> 100 µM	> 100 µM	> 100 µM			
CC(C)(C)C1=CC(C)(n2[nH]c(=O)n(-c3ccccc3)c2=O)C=C(C(C)(C)C)C1=O	> 100 µM	> 100 µM	> 100 µM	> 100 µM	> 100 µM	> 100 µM	> 100 µM	> 100 µM		> 100 µM	> 100 µM	> 100 µM		> 100 µM	> 100 µM	> 100 µM				
CCC1OC2C(CC=C(C)C)=C3OC(C)(O)C(C)(CC)C(OC(C)=O)C3=C3OC(=O)C=C1C32 (centres undefined)		> 100 µM	50.3 µM	70.5 µM	40.9 µM	> 100 µM	> 100 µM	62.2 µM	> 100 µM	38.1 µM	> 100 µM	> 100 µM	> 100 µM	> 100 µM		> 100 µM	> 100 µM			
[O-]c1c2cc(-[n+]3c(-c4ccccc4)cc(-c4ccccc4)cc3-c3ccccc3)cc1COCCOCCOCCOCCOC2		> 100 µM		> 100 µM	> 100 µM	> 100 µM	> 100 µM	> 100 µM		> 100 µM	> 100 µM		> 100 µM	> 100 µM	> 100 µM	> 100 µM	65.7 µM			
C/C=C/C#CC#C/C=C/C=C/C(O)CCO (centres undefined)		> 23.1 µM		> 23.1 µM	> 23.1 µM	> 23.1 µM	> 23.1 µM	> 23.1 µM	> 23.1 µM	> 23.1 µM	> 23.1 µM		> 23.1 µM	> 23.1 µM	> 23.1 µM	> 23.1 µM	> 23.1 µM			
COc1ccc2c(c1)c1c(n2CCN(C)C)-c2ccccc2CC1	30.5 µM	34.2 µM	36.5 µM	31.4 µM	27 µM	29.8 µM	29.8 µM	26.4 µM	30.9 µM	32.9 µM	31.1 µM	31.5 µM	29.3 µM	30.4 µM	24.6 µM	27.2 µM				
COC(=O)c1ccc2c(c1)S/C(=C/c1ccc3ccc4cccc5ccc1c3c45)S2	> 100 µM	76.8 µM	74.3 µM	> 100 µM	> 100 µM	> 100 µM	> 100 µM	> 100 µM	49.3 µM	92.2 µM	> 100 µM	> 100 µM	> 100 µM	> 100 µM	> 100 µM	> 100 µM				
CC1(C)CNCC(C)(OCc2ccccc2)C(=O)NC(C)(C)CNCC(C)(OCc2ccccc2)C(=O)N1 (centres undefined)	> 10 µM	> 10 µM	> 10 µM		> 10 µM	> 10 µM	> 10 µM	> 10 µM	> 10 µM		> 10 µM	> 10 µM	> 10 µM	> 10 µM	> 10 µM	> 10 µM				
O=C(/C=C/c1ccc(Oc2cc(C(=O)/C=C/c3ccc(O)cc3)c(O)cc2O)cc1)c1ccc(O)cc1O		19.8 µM	17.6 µM	28.3 µM	6.1 µM	11.6 µM	16.6 µM	> 100 µM	11.9 µM	19.1 µM	6.09 µM	27.4 µM	24.1 µM	16 µM		20.7 µM	> 100 µM			
CCOP1(=O)C=C(C)C(Cl)=C(C)C1 (centres undefined)		53.5 µM		90.9 µM	59.5 µM	96.7 µM	90.5 µM	> 100 µM	> 100 µM	27.8 µM	> 100 µM		70.9 µM	83 µM	59.9 µM	63.2 µM	> 100 µM			
O=c1[nH]c(=S)nc2nc3c4ccc[nH]c4c4ccccc4c3nc12	> 100 µM	> 100 µM	> 100 µM	> 100 µM	> 100 µM	> 100 µM		> 100 µM	> 100 µM	> 100 µM	> 100 µM		> 100 µM	> 100 µM		> 100 µM	> 100 µM			
O=C(CCC1C(=O)NC(=S)NC1=O)c1ccc2ccccc2c1		> 100 µM		> 100 µM	> 100 µM	> 100 µM	> 100 µM	> 100 µM	> 100 µM	31.1 µM	> 100 µM		> 100 µM	> 100 µM	> 100 µM	> 100 µM	> 100 µM			
NS(=O)(=O)c1nnc(NS(=O)(=O)C(F)(F)F)s1		> 100 µM	> 100 µM	> 100 µM	> 100 µM	> 100 µM	> 100 µM	> 100 µM	> 100 µM	> 100 µM	> 100 µM		> 100 µM	> 100 µM	> 100 µM	> 100 µM	> 100 µM			
CC(=O)C1=CN=C2C(=O)N(c3ccccc3)N(C)C12C (centres undefined)	> 100 µM	> 100 µM	> 100 µM	> 100 µM	> 100 µM	> 100 µM	> 100 µM	> 100 µM	> 100 µM	> 100 µM	> 100 µM		> 100 µM	> 100 µM	> 100 µM	> 100 µM	> 100 µM			
COc1ccc(OC)c(CNc2ccc(C(=O)O)cc2)c1	> 100 µM	> 100 µM	> 100 µM	> 100 µM	> 100 µM	> 100 µM	> 100 µM	> 100 µM	> 100 µM	> 100 µM	> 100 µM		> 100 µM	> 100 µM	> 100 µM	> 100 µM	> 100 µM			
O=[N+]([O-])c1ccc(OC2CC3C4C=CC3C2C4)c([N+](=O)[O-])c1 (centres undefined)		> 100 µM	> 100 µM	76.3 µM and > 31.6 µM	> 100 µM	> 100 µM	> 100 µM	> 100 µM	> 100 µM	> 100 µM	> 100 µM	> 100 µM	> 100 µM	> 100 µM	> 100 µM	> 100 µM		> 100 µM	> 100 µM	> 100 µM
